# Results from PubChem BioAssay AID256 (DTP/NCI, 2004).
# “And” between values parts separate entries of the source, which are not always exact repeats. Equal values may be shown once. Inconclusive results and toxic doses are left out.
# Tested on: CD2F1 mice, L1210 leukemia ip, survival T/C
# Assay: NCI In Vivo Anticancer Drug Screen. Data for tumor model L1210 Leukemia (intraperitoneal) in CD2F1 (CDF1) mice
# Details: endpoint: mean survival time, higher = longer survival
# In short: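 Implant tumor; dose compound or vehicle; measure endpoint in both groups; report treated divided by control.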
# [1] = dose: 25.0 mg/kg/injection, schedule: Q04DX002 (ip), vehicle: saline with Tween-80
# [2] = dose: 50.0 mg/kg/injection, schedule: Q04DX002 (ip), vehicle: saline with Tween-80
# [3] = dose: 100.0 mg/kg/injection, schedule: Q04DX002 (ip), vehicle: saline with Tween-80
# [4] = dose: 100.0 mg/kg/injection, schedule: Q04DX003 (ip), vehicle: other
# [5] = dose: 100.0 mg/kg/injection, schedule: Q04DX003 (ip), vehicle: saline with Tween-80
# [6] = dose: 200.0 mg/kg/injection, schedule: Q04DX003 (ip), vehicle: saline with Tween-80
# [7] = dose: 400.0 mg/kg/injection, schedule: Q04DX003 (ip), vehicle: saline with Tween-80
# [8] = dose: 100.0 mg/kg/injection, schedule: Q01DX009 (ip), vehicle: saline with Tween-80
# [9] = dose: 200.0 mg/kg/injection, schedule: Q01DX009 (ip), vehicle: saline with Tween-80
# [10] = dose: 400.0 mg/kg/injection, schedule: Q01DX009 (ip), vehicle: saline with Tween-80
# [11] = dose: 75.0 mg/kg/injection, schedule: Q01DX001 (ip), vehicle: saline
# [12] = dose: 150.0 mg/kg/injection, schedule: Q01DX001 (ip), vehicle: saline
compound,measurement,setting,value
S=P(c1ccccc1)(N1CC1)N1CC1,T/C,"dose: 6.25 mg/kg/injection, schedule: Q01DX009 (ip), vehicle: Klucel (hydroxypropylcellulose) (HPC)",102 % of control
same,T/C,"dose: 6.25 mg/kg/injection, schedule: Q01DX009 (ip), vehicle: other",95 % of control
same,T/C,"dose: 12.5 mg/kg/injection, schedule: Q01DX009 (ip), vehicle: Klucel (hydroxypropylcellulose) (HPC)",102 % of control
same,T/C,"dose: 12.5 mg/kg/injection, schedule: Q01DX009 (ip), vehicle: other",118 % of control and 104 % of control
same,T/C,"dose: 22.0 mg/kg/injection, schedule: Q01DX009 (ip), vehicle: other",115 % of control
same,T/C,"dose: 25.0 mg/kg/injection, schedule: Q01DX009 (ip), vehicle: Klucel (hydroxypropylcellulose) (HPC)",104 % of control
same,T/C,"dose: 25.0 mg/kg/injection, schedule: Q01DX009 (ip), vehicle: other",106 % of control
same,T/C,[1],96 % of control
same,T/C,"dose: 44.0 mg/kg/injection, schedule: Q04DX002 (ip), vehicle: other",97 % of control
same,T/C,"dose: 44.0 mg/kg/injection, schedule: Q04DX003 (ip), vehicle: other",106 % of control
same,T/C,"dose: 50.0 mg/kg/injection, schedule: Q01DX009 (ip), vehicle: Klucel (hydroxypropylcellulose) (HPC)",118 % of control
same,T/C,"dose: 50.0 mg/kg/injection, schedule: Q01DX009 (ip), vehicle: other",123 % of control
same,T/C,[2],103 % of control and 106 % of control
same,T/C,"dose: 66.0 mg/kg/injection, schedule: Q04DX002 (ip), vehicle: other",109 % of control
same,T/C,"dose: 66.0 mg/kg/injection, schedule: Q04DX003 (ip), vehicle: other",118 % of control
same,T/C,"dose: 75.0 mg/kg/injection, schedule: Q01DX009 (ip), vehicle: other",101 % of control
same,T/C,"dose: 100.0 mg/kg/injection, schedule: Q04DX002 (ip), vehicle: other",115 % of control
same,T/C,[3],117 % of control
same,T/C,[4],108 % of control
same,T/C,"dose: 118.0 mg/kg/injection, schedule: Q01DX001 (ip), vehicle: other",100 % of control
same,T/C,"dose: 150.0 mg/kg/injection, schedule: Q04DX002 (ip), vehicle: other",103 % of control
same,T/C,"dose: 178.0 mg/kg/injection, schedule: Q01DX001 (ip), vehicle: other",97 % of control
same,T/C,"dose: 266.0 mg/kg/injection, schedule: Q01DX001 (ip), vehicle: other",109 % of control
same,T/C,"dose: 400.0 mg/kg/injection, schedule: Q01DX001 (ip), vehicle: other",100 % of control
CC(=O)N1CCc2cc(N)ccc21,T/C,[5],93 % of control
same,T/C,[6],95 % of control
same,T/C,[7],97 % of control
CN(C)c1ccc(C=C(c2ccc(N)cc2)c2ccc(N)cc2)cc1,T/C,[8],91 % of control
same,T/C,[9],92 % of control
same,T/C,[10],94 % of control
CNC1CCCCCC1,T/C,[11],101 % of control
same,T/C,[12],101 % of control
CC(C)(C)C1CCC(S(=O)c2ccc([N+](=O)[O-])cc2[N+](=O)[O-])CC1 (stereo not drawn),T/C,[8],90 % of control
same,T/C,[5],94 % of control
same,T/C,[9],91 % of control
same,T/C,[6],98 % of control
same,T/C,[10],86 % of control
same,T/C,[7],88 % of control
CN1C=Cc2ccccc2C1,T/C,"dose: 100.0 mg/kg/injection, schedule: Q01DX001 (ip), vehicle: saline with Tween-80",93 % of control
same,T/C,[8],93 % of control
same,T/C,"dose: 200.0 mg/kg/injection, schedule: Q01DX001 (ip), vehicle: saline with Tween-80",95 % of control
same,T/C,"dose: 400.0 mg/kg/injection, schedule: Q01DX001 (ip), vehicle: saline with Tween-80",93 % of control
CCc1ccc(NS(=O)(=O)c2ccccc2)cc1,T/C,[8],90 % of control
same,T/C,[9],106 % of control
same,T/C,[10],95 % of control
CCC(C)OC(=O)Nc1cccc(OC(=O)N(C)C)c1 (stereo not drawn),T/C,[5],97 % of control
same,T/C,[6],97 % of control
same,T/C,[7],100 % of control
CN(C)N=Nc1ccc(S(N)(=O)=O)cc1,T/C,"dose: 18.75 mg/kg/injection, schedule: Q01DX009 (ip), vehicle: Klucel (hydroxypropylcellulose) (HPC)",106 % of control
same,T/C,"dose: 37.5 mg/kg/injection, schedule: Q01DX009 (ip), vehicle: Klucel (hydroxypropylcellulose) (HPC)",124 % of control
same,T/C,"dose: 150.0 mg/kg/injection, schedule: Q01DX009 (ip), vehicle: Klucel (hydroxypropylcellulose) (HPC)",118 % of control
Nc1nc(N)c2c(n1)NCN(CCc1ccc(Cl)cc1)C2,T/C,"dose: 0.75 mg/kg/injection, schedule: Q01DX009 (ip), vehicle: distilled water + Tween-80",100 % of control
same,T/C,"dose: 1.5 mg/kg/injection, schedule: Q01DX009 (ip), vehicle: distilled water + Tween-80",102 % of control
same,T/C,"dose: 3.0 mg/kg/injection, schedule: Q01DX009 (ip), vehicle: distilled water + Tween-80",102 % of control
same,T/C,"dose: 6.0 mg/kg/injection, schedule: Q01DX009 (ip), vehicle: distilled water + Tween-80",100 % of control
same,T/C,"dose: 12.0 mg/kg/injection, schedule: Q01DX009 (ip), vehicle: distilled water + Tween-80",100 % of control
same,T/C,"dose: 24.0 mg/kg/injection, schedule: Q01DX009 (ip), vehicle: distilled water + Tween-80",98 % of control
Nc1c(Cl)c(Cl)cc(Cl)c1Cl,T/C,[5],97 % of control
same,T/C,[6],102 % of control
same,T/C,[7],92 % of control
NC(=O)CNC1=C(N2CC2)C(=O)C(NCC(N)=O)=C(N2CC2)C1=O,T/C,"dose: 5.0 mg/kg/injection, schedule: Q01DX009 (ip), vehicle: saline",172 % of control
same,T/C,"dose: 10.0 mg/kg/injection, schedule: Q01DX009 (ip), vehicle: saline",180 % of control and 192 % of control
same,T/C,"dose: 15.0 mg/kg/injection, schedule: Q01DX009 (ip), vehicle: saline",91 % of control
BrCc1c2ccccc2c(CBr)c2c1ccc1ccccc12,T/C,"dose: 25.0 mg/kg/injection, schedule: Q04DX002 (ip), vehicle: carboxymethylcellulose (CMC)",105 % of control
same,T/C,"dose: 50.0 mg/kg/injection, schedule: Q04DX002 (ip), vehicle: carboxymethylcellulose (CMC)",117 % of control
same,T/C,"dose: 100.0 mg/kg/injection, schedule: Q04DX002 (ip), vehicle: Klucel (hydroxypropylcellulose) (HPC)",97 % of control
same,T/C,"dose: 100.0 mg/kg/injection, schedule: Q04DX002 (ip), vehicle: carboxymethylcellulose (CMC)",113 % of control
same,T/C,"dose: 200.0 mg/kg/injection, schedule: Q04DX002 (ip), vehicle: Klucel (hydroxypropylcellulose) (HPC)",117 % of control
CCCCCCCCCCCC(O)CCCCC (stereo not drawn),T/C,"dose: 100.0 mg/kg/injection, schedule: Q01DX009 (ip), vehicle: other",95 % of control
same,T/C,[4],91 % of control
same,T/C,"dose: 200.0 mg/kg/injection, schedule: Q01DX009 (ip), vehicle: other",91 % of control
same,T/C,"dose: 200.0 mg/kg/injection, schedule: Q04DX003 (ip), vehicle: other",103 % of control
same,T/C,"dose: 400.0 mg/kg/injection, schedule: Q01DX009 (ip), vehicle: other",98 % of control
same,T/C,"dose: 400.0 mg/kg/injection, schedule: Q04DX003 (ip), vehicle: other",96 % of control
C[Si](C)(C)OC1(C#N)C=CC(=O)C=C1,T/C,"dose: 1.56 mg/kg/injection, schedule: Q01DX001 (ip), vehicle: saline with Tween-80",103 % of control
same,T/C,"dose: 3.13 mg/kg/injection, schedule: Q01DX001 (ip), vehicle: saline with Tween-80",100 % of control
same,T/C,"dose: 6.25 mg/kg/injection, schedule: Q01DX001 (ip), vehicle: saline with Tween-80",92 % of control and 95 % of control
CCCCCOC(=O)CC(N)C(=O)OCCCCC (stereo not drawn),T/C,"dose: 50.0 mg/kg/injection, schedule: Q01DX009 (ip), vehicle: saline with Tween-80",96 % of control
same,T/C,[8],100 % of control
same,T/C,[5],93 % of control
same,T/C,[9],91 % of control
same,T/C,[6],93 % of control
CCCOc1ccc(/C=N\N=C\c2ccc(OCCC)cc2)cc1,T/C,[5],89 % of control
same,T/C,[6],89 % of control
same,T/C,[7],91 % of control
NNc1ccccc1F,T/C,[1],97 % of control
same,T/C,[2],90 % of control
same,T/C,[3],93 % of control
same,T/C,"dose: 100.0 mg/kg/injection, schedule: Q04DX003 (ip), vehicle: saline sonified",87 % of control
COC1C=CC=CC=C1,T/C,"dose: 15.0 mg/kg/injection, schedule: Q04DX003 (ip), vehicle: saline sonified",100 % of control
same,T/C,"dose: 30.0 mg/kg/injection, schedule: Q04DX003 (ip), vehicle: saline sonified",94 % of control
same,T/C,"dose: 60.0 mg/kg/injection, schedule: Q04DX003 (ip), vehicle: saline sonified",100 % of control
CN1C2C=C(c3ccccc3)C(Br)C1CC2 (stereo not drawn),T/C,"dose: 20.0 mg/kg/injection, schedule: Q01DX009 (ip), vehicle: saline",103 % of control
same,T/C,"dose: 40.0 mg/kg/injection, schedule: Q01DX009 (ip), vehicle: saline",112 % of control
same,T/C,"dose: 80.0 mg/kg/injection, schedule: Q01DX009 (ip), vehicle: saline",110 % of control
COc1ccc(CCNC2CCCCC2O)cc1OC (stereo not drawn),T/C,[11],106 % of control
same,T/C,[12],98 % of control
same,T/C,"dose: 300.0 mg/kg/injection, schedule: Q01DX001 (ip), vehicle: saline",104 % of control
